Legend:
[1] = test system: HeLa cells; experiment: Confocal fluorescence imaging of HDAC activity in HeLa cells; format: cell-based; conditions: 5 μM probe, 2 hours
Method: Imaging HDAC activity in HeLa cells with HP-1 and 2. An acid-washed, poly-lysine-treated sterile glass cover slip was added to each well of 6-well plate, and HeLa cells were plated at a seeding density of ˜2.5×10^5 cells/mL in 2 mL of growth medium. After 24 hours, the cells reached 80-85% confluence. For all experiments, solutions of HP-1 and HP-2 (200 mM each) were prepared in DMSO and diluted in HDAC buffer to a final concentration of 100 μM. SAHA solutions (100 mM) were prepared in DMSO and diluted in HDAC buffer to make a 100 μM solution. All solutions were prepared immediately prior to application to the cells. […]
Confocal fluorescence image acquisition and analysis. Confocal fluorescence imaging was performed with a Zeiss laser scanning microscope 710 with a 63× objective lens and Zen 2009 software (Carl Zeiss). […] The mean fluorescence intensity of 10 cells per coverslip was measured using ImageJ software. […] The mean background signal was also measured and subtracted from the mean fluorescence signal within the cells. Mean fluorescence intensities and standard deviations were plotted in Microsoft Excel.
Imaging HDAC activity in HeLa cells with HP-1 and 2. […] Cover slips were mounted on a drop of Gel Mount (anti-fade with DAPI nuclear stain) and analyzed by confocal imaging.
Confocal fluorescence imaging. […]

[2] = target: HDAC2 (Homo sapiens, UniProt Q92769); experiment: LCMS characterization of enzymatic deacetylation by HDAC2; format: biochemical; conditions: 5 μM probe, 12 hours at 37° C.
Method: (§1) The enzymatic cleavage of HP-1 and HP-2 was analyzed by performing LCMS assays with HeLa nuclear extract (AnaSpec), HeLa whole cell lysate (Santa Cruz Inc.), and the following purified HDAC isoforms: 1, 2, 3, 6 and 8 (HDAC1, 3 and 8 from Cayman Chemicals and HDAC2 and 6 provided by Dr. Stephen Haggarty). Solutions containing (i) vehicle with DMSO in HDAC buffer, (ii) 5 μM probe in HDAC buffer, (iii) 5 μM probe and HDAC enzyme/HeLa nuclear extract/HeLa whole cell lysate in HDAC buffer, or (iv) 5 μM probe and HDAC enzyme/HeLa nuclear extract/HeLa whole cell lysate pre-incubated with 10 μM SAHA (Provided by Dr. Stephen Haggarty) in HDAC buffer were incubated for 12 hours at 37° C. Following incubation, a 20 μL aliquot of supernatant from each sample was analyzed by LCMS. […] For HP-1, the (M+H)^+ ion for the corresponding aldehyde (8, DHP-1) was detected, which formed following reaction of the initial imine deacetylation product with water. […] The peak area for each detected compound was measured to determine the % deacetylation of each probe. All assay samples were analyzed in triplicate. […]
(§2) LCMS characterization of HDAC enzymatic action on HP-1 and HP-2. […] Following incubation, an aliquot of supernatant from each sample was analyzed by LCMS. […] The peak area for each detected compound was measured to determine the % deacetylation of each probe (full experimental details in Example 1).

[3] = target: T1, HDAC1 (Homo sapiens, UniProt Q13547); experiment: LCMS characterization of enzymatic deacetylation by HDAC1; format: biochemical; conditions: 5 μM probe, 12 hours at 37° C.
T1 construct: purchased Cayman Chemicals
Method: as §1, §2

Sequence of HDAC2 (Q92769 whole entry, species assumed, canonical isoform): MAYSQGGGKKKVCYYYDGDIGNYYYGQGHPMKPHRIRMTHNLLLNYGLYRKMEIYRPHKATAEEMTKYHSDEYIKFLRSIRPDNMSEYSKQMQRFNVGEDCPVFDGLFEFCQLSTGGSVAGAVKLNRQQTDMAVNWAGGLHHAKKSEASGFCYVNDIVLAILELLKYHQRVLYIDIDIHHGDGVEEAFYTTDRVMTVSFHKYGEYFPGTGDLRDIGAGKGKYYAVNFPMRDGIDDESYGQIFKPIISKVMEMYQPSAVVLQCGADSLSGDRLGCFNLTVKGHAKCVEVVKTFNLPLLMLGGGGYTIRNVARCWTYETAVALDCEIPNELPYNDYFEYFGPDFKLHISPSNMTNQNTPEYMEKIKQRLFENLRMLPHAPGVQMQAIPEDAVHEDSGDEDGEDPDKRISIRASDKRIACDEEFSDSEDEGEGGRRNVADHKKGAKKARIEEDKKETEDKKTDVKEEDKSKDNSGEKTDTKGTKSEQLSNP
T1 sequence (Q13547 whole entry): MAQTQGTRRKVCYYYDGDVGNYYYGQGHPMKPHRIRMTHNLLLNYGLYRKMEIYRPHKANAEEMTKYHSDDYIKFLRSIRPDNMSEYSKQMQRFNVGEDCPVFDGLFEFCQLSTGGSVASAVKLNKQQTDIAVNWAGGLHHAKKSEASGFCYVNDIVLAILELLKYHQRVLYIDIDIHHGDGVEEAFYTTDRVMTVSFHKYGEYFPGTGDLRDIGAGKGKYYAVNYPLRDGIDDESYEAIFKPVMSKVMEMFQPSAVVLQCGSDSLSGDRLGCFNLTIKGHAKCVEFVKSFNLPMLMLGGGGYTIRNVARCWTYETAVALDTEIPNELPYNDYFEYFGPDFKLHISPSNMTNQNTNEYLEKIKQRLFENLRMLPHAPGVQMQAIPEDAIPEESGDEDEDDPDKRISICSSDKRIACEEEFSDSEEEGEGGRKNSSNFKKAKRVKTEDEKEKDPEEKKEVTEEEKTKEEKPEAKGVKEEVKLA

CC(=O)NC=CCCCCNC(=O)CCCCCNc1ccc([N+](=O)[O-])c2nonc12 [HP-1]
intracellular NBD fluorescence ([1]; 10 μM SAHA added 15 min prior): reduces the level of fluorescence | intracellular NBD fluorescence ([1]; absence of SAHA): robust intracellular fluorescent signal | % HP-1 to DHP-1 ([2]; HDAC2, +SAHA (10 μM)): 0% | % HP-1 to DHP-1 ([2]; HDAC2, −SAHA): 0% | % HP-1 to DHP-1 ([3]; HDAC1, +SAHA (10 μM pre-incubated)): 0% | % HP-1 to DHP-1 ([3]; HDAC1, −SAHA, maximum detected conversion, 1.5:1 trans:cis mixture): 15%

— patent US20160138077A1, “MONITORING AND ASSESSING DEACETYLASE ENZYME ACTIVITY” (THE GENERAL HOSPITAL CORPORATION, priority 2013, published 2016)
